Assay results as given in patent publication US10195185B2, “3-(1H-imidazo[4,5-C]pyridin-2-yl)-1H-pyrazolo[4,3-B]pyridines and therapeutic uses thereof” (Samumed, LLC, priority 2015, dated 2019).

Tests used:
[1] = test system: Primary human fibroblasts derived from IPF patients (LL29 cells) treated with TGF-β1; experiment: Inhibition of the fibrotic process: αSMA staining in TGF-β1 treated fibroblasts; assay type: cell-based; settings: Fibroblast, 96 h, LL29 fibroblasts treated with TGF-β1, 4 days; for inhibition at 10 µM: read-out: percent inhibition in brackets beside EC50 >10 μM
Outline: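 Compound dilutions from 10 μM down to […] are dispensed, LL29 cells added in F12 with 1% FBS, and TGF-β1 (20 ng/mL) follows after 1 h. After 4 days, live-cell αSMA positivity is measured by immunofluorescence and normalized to TGF-β1-treated wells to derive EC50.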

[2] = test system: IL-6 in human monocyte cell line (THP-1 cells); experiment: IL-6 inhibition in LPS-stimulated THP-1 cells (HTRF); assay type: cell-based; settings: IL-6 in LPS-stimulated THP-1 cells; for EC50: HTRF; for inhibition at 10 µM: read-out: percent inhibition in brackets beside EC50 >10 μM
Outline: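 THP-1 cells, serum-reduced (1% FBS) for 24 h, were preincubated with compound (10-point 1:3 series from 10 μM, 0.1% DMSO) for 2 h, then stimulated with 500 ng/mL LPS for 22 h at 37° C. IL-6 was read by HTRF (665/620 nm ratio) and normalized to DMSO. EC50 from four-parameter fit; % inhibition at 10 μM given if EC50 >10 μM.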

## COc1cccc(-c2nccc3[nH]c(-c4n[nH]c5ccc(-c6cncc(OC7CCNCC7)c6)nc45)nc23)c1 [Compound 1025, 3-(4-(3-Methoxyphenyl)-1H-imidazo[4,5-c]pyridin-2-yl)-5-(5-(piperidin-4-yloxy)pyridin-3-yl)-1H-pyrazolo[4,3-b]pyridine]
[1]
  EC50: 3.33 µM
[2]
  EC50: > 10 µM
  inhibition at 10 µM: 26.9%

## Fc1cccc(-c2nccc3[nH]c(-c4n[nH]c5ccc(-c6cncc(CN7CCC(F)(F)C7)c6)nc45)nc23)c1 [Compound 26, 5-(5-((3,3-Difluoropyrrolidin-1-yl)methyl)pyridin-3-yl)-3-(4-(3-fluorophenyl)-1H-imidazo[4,5-c]pyridin-2-yl)-1H-pyrazolo[4,3-b]pyridine]
[1]
  EC50: 3.21 µM
[2]
  EC50: > 10 µM
  inhibition at 10 µM: 0%

## CCC(=O)Nc1cncc(-c2ccc3[nH]nc(-c4nc5c(-c6cccc(F)c6)nccc5[nH]4)c3n2)c1 [Compound 1, N-(5-(3-(4-(3-Fluorophenyl)-1H-imidazo[4,5-c]pyridin-2-yl)-1H-pyrazolo [4,3-b]pyridin-5-yl)pyridin-3-yl)propionamide]
[1]
  EC50: > 10 µM
  inhibition at 10 µM: 0%
[2]
  EC50: > 10 µM
  inhibition at 10 µM: 0%

## c1cc2[nH]c(-c3n[nH]c4ccc(-c5cn[nH]c5)nc34)nc2cn1 [Compound 651, 3-(1H-Imidazo[4,5-c]pyridin-2-yl)-5-(1H-pyrazol-4-yl)-1H-pyrazolo[4,3-b]pyridine]
[1]
  EC50: > 10 µM
  inhibition at 10 µM: 16.4%
[2]
  EC50: > 10 µM
  inhibition at 10 µM: 0%

## CN1CCN(c2nccc3[nH]c(-c4n[nH]c5ccc(-c6cncc(NC(=O)C7CCCC7)c6)nc45)nc23)CC1 [Compound 246, N-(5-(3-(4-(4-Methylpiperazin-1-yl)-1H-imidazo[4,5-c]pyridin-2-yl)-1H-pyrazolo [4,3-b]pyridin-5-yl)pyridin-3-yl)cyclopentanecarboxamide]
[1]
  EC50: 5.26 µM
[2]
  EC50: > 10 µM
  inhibition at 10 µM: 37.7%

## CCCCC(=O)Nc1cncc(-c2ccc3[nH]nc(-c4nc5c(-c6ccoc6)nccc5[nH]4)c3n2)c1 [Compound 327, N-(5-(3-(4-(Furan-3-yl)-1H-imidazo[4,5-c]pyridin-2-yl)-1H-pyrazolo[4,3-b]pyridin-5-yl)pyridin-3-yl)pentanamide]
[1]
  EC50: > 10 µM
  inhibition at 10 µM: 0%
[2]
  EC50: > 10 µM
  inhibition at 10 µM: 22.5%

## CN1CCN(c2nccc3[nH]c(-c4n[nH]c5ccc(-c6cnccn6)nc45)nc23)CC1 [Compound 648, 3-(4-(4-Methylpiperazin-1-yl)-1H-imidazo[4,5-c]pyridin-2-yl)-5-(pyrazin-2-yl)-1H-pyrazolo[4,3-b]pyridine]
[1]
  EC50: 6.47 µM
[2]
  EC50: 0.998 µM

## Fc1ccccc1-c1nccc2[nH]c(-c3n[nH]c4ccc(-c5cncc(CNCC6CCCC6)c5)nc34)nc12 [Compound 81, 1-Cyclopentyl-N-((5-(3-(4-(2-fluorophenyl)-1H-imidazo[4,5-c]pyridin-2-yl)-1H-pyrazolo[4,3-b]pyridin-5-yl)pyridin-3-yl)methyl)methanamine]
[1]
  EC50: 1.28 µM
[2]
  EC50: > 10 µM
  inhibition at 10 µM: 54.6%

## O=C(Nc1cncc(-c2ccc3[nH]nc(-c4nc5c(-c6ccsc6)nccc5[nH]4)c3n2)c1)c1ccccc1 [Compound 291, N-(5-(3-(4-(Thiophen-3-yl)-1H-imidazo[4,5-c]pyridin-2-yl)-1H-pyrazolo [4,3-b]pyridin-5-yl)pyridin-3-yl)benzamide]
[1]
  EC50: > 10 µM
  inhibition at 10 µM: 0%
[2]
  EC50: > 10 µM
  inhibition at 10 µM: 0%

## Cn1cc(-c2ccc3[nH]nc(-c4nc5c(N6CCCCC6)nccc5[nH]4)c3n2)c(CO)n1 [Compound 1133, (1-Methyl-4-(3-(4-(piperidin-1-yl)-1H-imidazo[4,5-c]pyridin-2-yl)-1H-pyrazolo [4,3-b]pyridin-5-yl)-1H-pyrazol-3-yl)methanol]
[1]
  EC50: 1.06 µM
[2]
  EC50: > 10 µM
  inhibition at 10 µM: 0%

## CC(C)Nc1cncc(-c2ccc3[nH]nc(-c4nc5c(-c6ccoc6)nccc5[nH]4)c3n2)c1 [Compound 320, 5-(3-(4-(Furan-3-yl)-1H-imidazo[4,5-c]pyridin-2-yl)-1H-pyrazolo[4,3-b]pyridin-5-yl)-N-isopropylpyridin-3-amine]
[1]
  EC50: 0.17 µM
[2]
  EC50: 0.482 µM

## c1cncc(-c2ccc3[nH]nc(-c4nc5c(-c6cccnc6)nccc5[nH]4)c3n2)c1 [Compound 88, 5-(Pyridin-3-yl)-3-(4-(pyridin-3-yl)-1H-imidazo[4,5-c]pyridin-2-yl)-1H-pyrazolo[4,3-b]pyridine]
[1]
  EC50: > 10 µM
  inhibition at 10 µM: 22.2%
[2]
  EC50: > 10 µM
  inhibition at 10 µM: 20.4%

## FC1(F)CCN(Cc2cncc(-c3ccc4[nH]nc(-c5nc6c(-c7ccsc7)nccc6[nH]5)c4n3)c2)C1 [Compound 306, 5-(5-((3,3-difluoropyrrolidin-1-yl)methyl)pyridin-3-yl)-3-(4-(thiophen-3-yl)-1H-imidazo[4,5-c]pyridin-2-yl)-1H-pyrazolo[4,3-b]pyridine]
[1]
  EC50: 1.24 µM
[2]
  EC50: 3.66 µM

## CCCCC(=O)Nc1cncc(-c2ccc3[nH]nc(-c4nc5c(-c6ccccn6)nccc5[nH]4)c3n2)c1 [Compound 159, N-(5-(3-(4-(Pyridin-2-yl)-1H-imidazo[4,5-c]pyridin-2-yl)-1H-pyrazolo[4,3-b]pyridin-5-yl)pyridin-3-yl)pentanamide]
[1]
  EC50: 4.04 µM
[2]
  EC50: > 10 µM
  inhibition at 10 µM: 28.2%

## O=C(Nc1cncc(-c2ccc3[nH]nc(-c4nc5c(-c6ccncc6)nccc5[nH]4)c3n2)c1)C1CCCCC1 [Compound 135, N-(5-(3-(4-(pyridin-4-yl)-1H-imidazo[4,5-c]pyridin-2-yl)-1H-pyrazolo[4,3-b]pyridin-5-yl)pyridin-3-yl)cyclohexanecarboxamide]
[1]
  EC50: > 10 µM
  inhibition at 10 µM: 0%
[2]
  EC50: > 10 µM
  inhibition at 10 µM: 33.2%

## Cc1ccncc1-c1ccc2[nH]nc(-c3nc4c(-c5ccncc5)nccc4[nH]3)c2n1 [Compound 117, 5-(4-Methylpyridin-3-yl)-3-(4-(pyridin-4-yl)-1H-imidazo[4,5-c]pyridin-2-yl)-1H-pyrazolo[4,3-b]pyridine]
[1]
  EC50: > 10 µM
  inhibition at 10 µM: 0%
[2]
  EC50: > 10 µM
  inhibition at 10 µM: 33.1%

## COc1cccc(-c2nccc3[nH]c(-c4n[nH]c5ccc(-c6cn[nH]c6)nc45)nc23)c1 [Compound 1020, 3-(4-(3-Methoxyphenyl)-1H-imidazo[4,5-c]pyridin-2-yl)-5-(1H-pyrazol-4-yl)-1H-pyrazolo[4,3-b]pyridine]
[1]
  EC50: > 10 µM
  inhibition at 10 µM: 0%
[2]
  EC50: > 10 µM
  inhibition at 10 µM: 0%

## CCCC(=O)Nc1cncc(-c2ccc3[nH]nc(-c4nc5c(-c6ccsc6)nccc5[nH]4)c3n2)c1 [Compound 297, N-(5-(3-(4-(Thiophen-3-yl)-1H-imidazo[4,5-c]pyridin-2-yl)-1H-pyrazolo [4,3-b]pyridin-5-yl)pyridin-3-yl)butyramide]
[1]
  EC50: > 10 µM
  inhibition at 10 µM: 16.1%
[2]
  EC50: 3.67 µM

## COc1cccc(-c2nccc3[nH]c(-c4n[nH]c5ccc(-c6cncc(NC(=O)Cc7ccccc7)c6)nc45)nc23)c1 [Compound 1000, N-(5-(3-(4-(3-methoxyphenyl)-1H-imidazo[4,5-c]pyridin-2-yl)-1H-pyrazolo [4,3-b]pyridin-5-yl)pyridin-3-yl)-2-phenylacetamide]
[1]
  EC50: 2.55 µM
[2]
  EC50: > 10 µM
  inhibition at 10 µM: 11.4%

## CC(C)(C)CC(=O)Nc1cncc(-c2ccc3[nH]nc(-c4nc5cnccc5[nH]4)c3n2)c1 [Compound 268, N-(5-(3-(1H-Imidazo[4,5-c]pyridin-2-yl)-1H-pyrazolo[4,3-b]pyridin-5-yl)pyridin-3-yl)-3,3-dimethylbutanamide]
[1]
  EC50: > 10 µM
  inhibition at 10 µM: 0%
[2]
  EC50: > 10 µM
  inhibition at 10 µM: 19%

## Cn1cc(-c2ccc3[nH]nc(-c4nc5c(-c6ccc7c(c6)OCO7)nccc5[nH]4)c3n2)c(CO)n1 [Compound 1151, (4-(3-(4-(Benzo[d][1,3]dioxol-5-yl)-1H-imidazo[4,5-c]pyridin-2-yl)-1H-pyrazolo [4,3-b]pyridin-5-yl)-1-methyl-1H-pyrazol-3-yl)methanol]
[1]
  EC50: > 10 µM
  inhibition at 10 µM: 0%
[2]
  EC50: > 10 µM
  inhibition at 10 µM: 0%

## O=C(Nc1cncc(-c2ccc3[nH]nc(-c4nc5c(N6CCCCC6)nccc5[nH]4)c3n2)c1)C1CC1 [Compound 188, N-(5-(3-(4-(Piperidin-1-yl)-1H-imidazo[4,5-c]pyridin-2-yl)-1H-pyrazolo [4,3-b]pyridin-5-yl)pyridin-3-yl)cyclopropanecarboxamide]
[1]
  EC50: > 10 µM
  inhibition at 10 µM: 0%
[2]
  EC50: > 10 µM
  inhibition at 10 µM: 15.9%

## CS(=O)(=O)NCc1cc(F)cc(-c2nccc3[nH]c(-c4n[nH]c5ccc(-c6cncc(NC(=O)CC7CCNCC7)c6)nc45)nc23)c1 [Compound 769, N-(5-(3-(4-(3-Fluoro-5-(methylsulfonamidomethyl)phenyl)-1H-imidazo[4,5-c]pyridin-2-yl)-1H-pyrazolo[4,3-b]pyridin-5-yl)pyridin-3-yl)-2-(piperidin-4-yl)acetamide]
[1]
  EC50: 5.05 µM
[2]
  EC50: > 10 µM
  inhibition at 10 µM: 33.4%
